According to the NIST ThermoML archive (doi:10.1021/acs.jced.7b00946):
± gives the expanded uncertainty stated by the source.

Assay: molar heat capacity at constant pressure
Conditions: Gas, Flow calorimetry

C=C(F)C(F)(F)F [2,3,3,3-tetrafluoro-1-propene]
Conditions	molar heat capacity at constant pressure [J/K/mol]
373.15 K, 3498 kPa	410.55 ± 52
373.15 K, 4114 kPa	394.58 ± 30
373.15 K, 4160 kPa	387.74 ± 25
373.15 K, 4441 kPa	288.53 ± 18
373.15 K, 4642 kPa	273.7 ± 15
373.15 K, 4921 kPa	245.19 ± 13
373.15 K, 5047 kPa	238.35 ± 11
373.15 K, 5955 kPa	210.98 ± 10
373.15 K, 6023 kPa	210.98 ± 10
373.15 K, 8020 kPa	187.03 ± 9.1
373.15 K, 8021 kPa	188.17 ± 9.1
373.15 K, 8024 kPa	188.17 ± 9.1
393.15 K, 4039 kPa	218.96 ± 13
393.15 K, 4040 kPa	217.82 ± 13
393.15 K, 4943 kPa	345.55 ± 17
393.15 K, 4944 kPa	339.84 ± 17
393.15 K, 5417 kPa	322.74 ± 16
393.15 K, 5958 kPa	278.26 ± 15
393.15 K, 6022 kPa	275.98 ± 26
393.15 K, 7949 kPa	205.27 ± 10
393.15 K, 8043 kPa	205.27 ± 10
393.15 K, 10032 kPa	188.17 ± 9.1
413.15 K, 4015 kPa	173.34 ± 9.1
413.15 K, 4989 kPa	207.56 ± 10
413.15 K, 5045 kPa	208.7 ± 10
413.15 K, 6037 kPa	244.05 ± 11
413.15 K, 6963 kPa	245.19 ± 11
413.15 K, 6965 kPa	241.77 ± 11
413.15 K, 8042 kPa	228.08 ± 11
413.15 K, 8043 kPa	228.08 ± 11
413.15 K, 10030 kPa	201.85 ± 10
